We go through 18 molecules from patent publication US12371454B2, “Cyclic peptide compound having Kras inhibitory action” (priority 2019, dated 2025).

Structures are written as SMILES. Starred links: 1 amine or outer side, 2 acyl side, 3 side chain; linkers in the order of their positions; H or OH if unused. Positions of bridges follow the written chain, without caps; N, C: chain ends. Non-standard residues stand in square brackets, D forms with d. Residues, ends and D or L forms follow the SMILES beside them. *: point of attachment. hPhe(3-Cl-4-CF3) = N[C@@H](CCc1ccc(C(F)(F)F)c(Cl)c1)C(=O)O; NMePhe(4-CF3) = CN[C@@H](Cc1ccc(C(F)(F)F)cc1)C(=O)O; NMePhe(4-Cl) = CN[C@@H](Cc1ccc(Cl)cc1)C(=O)O; NMePhe(4-Me) = CN[C@@H](Cc1ccc(C)cc1)C(=O)O; NMedβ3hAla = C[C@H](CC(=O)[*:2])N(C)[*:1]; Leu(4,5-dehydro) = C=C(C)C[C@H](N)C(=O)O; NMeAla(cPent) = CN[C@@H](CC1CCCC1)C(=O)O; Phe(3-Br) = N[C@@H](Cc1cccc(Br)c1)C(=O)O; Phe(3-Cl) = N[C@@H](Cc1cccc(Cl)c1)C(=O)O; Phe(3-I) = N[C@@H](Cc1cccc(I)c1)C(=O)O; X10 = CC(C)=CC[C@H](N[*:1])C(=O)[*:2]; NMeCha = CN[C@@H](CC1CCCCC1)C(=O)O; NMeD = CN[C@@H](CC(=O)O)C(=O)O; NMeL = CN[C@@H](CC(C)C)C(=O)O; NMeA = CN[C@@H](C)C(=O)O; NMeAib = CNC(C)(C)C(=O)O; Nle = CCCC[C@H](N)C(=O)O; Piperidide = C1CCN(*)CC1; Pyrrolidide = C1CCN(*)C1; dNMeA = CN[C@H](C)C(=O)O; Aze = O=C(O)[C@@H]1CCN1; Sar = CNCC(=O)O

This assay addresses T1, Kras and SOS1 (biotin-tagged human Kras loaded with GDP, His-tagged human SOS1) (Homo sapiens, UniProt P01116, G12D).
T1 construct: made in house; host or cells: E. coli (stated for Kras only)
Put plainly: Protein-protein interaction inhibition between Kras and SOS1 (KrasGl2D-SOS PPI) using AlphaScreen. It counts as binding. Particulars: AlphaScreen; biotin-tagged human Kras loaded with GDP, His-tagged human SOS1; read-out: KRAS G12D-SOS PPI IC50. An outline of the steps: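 Kras was produced in E. coli, purified, then loaded with GDP. It was paired via streptavidin acceptor beads with His-SOS1 held on nickel donor beads, and proximity signal at 520-620 nm was read after 680 nm illumination.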

T1 sequence (P01116 1-188 isoform P01116-2 G12D): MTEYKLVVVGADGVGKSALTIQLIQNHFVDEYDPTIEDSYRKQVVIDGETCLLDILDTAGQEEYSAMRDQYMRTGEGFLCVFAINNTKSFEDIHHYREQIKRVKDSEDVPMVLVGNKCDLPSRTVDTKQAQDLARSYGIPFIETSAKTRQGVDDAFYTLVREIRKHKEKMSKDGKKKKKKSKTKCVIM

With `CC[C@H](C)[C@@H]1NC(=O)[C@H](CC(C)C)N(C)C(=O)C[C@@H](C)N(C)C(=O)[C@H](CC(C)C)NC(=O)C(C)(C)N(C)C(=O)[C@H](CC(C)C)NC(=O)[C@H](CCc2ccc(C(F)(F)F)c(Cl)c2)NC(=O)CN(C)C(=O)[C@H](Cc2ccc(C)cc2)N(C)C(=O)[C@@H]2CCN2C(=O)[C@H](C)N(C)C1=O` [Compound 1379] (cyclo([Aze][NMePhe(4-Me)][Sar][hPhe(3-Cl-4-CF3)]L[NMeAib]L[NMedβ3hAla][NMeL]I[NMeA])), the IC50 (in general, the concentration at which inhibition is half-maximal) came out at 64 nM.

Regarding `CC[C@H](C)[C@@H]1NC(=O)[C@H](C)N(C)C(=O)C[C@@H](C)N(C)C(=O)[C@H](CC(C)C)NC(=O)C(C)(C)N(C)C(=O)[C@H](CC(C)C)NC(=O)[C@H](CCc2ccc(C(F)(F)F)c(Cl)c2)NC(=O)[C@@H](C)N(C)C(=O)[C@H](Cc2ccc(C)cc2)N(C)C(=O)[C@@H]2CCN2C(=O)CN(C)C1=O` [Compound 1382] (cyclo([Aze][NMePhe(4-Me)][dNMeA][hPhe(3-Cl-4-CF3)]L[NMeAib]L[NMedβ3hAla][NMeA]I[Sar])), the IC50 turned out to be 230 nM. As for `CC[C@H](C)[C@@H]1NC(=O)[C@H](C)N(C)C(=O)C[C@@H](C)N(C)C(=O)[C@H](CC(C)C)NC(=O)C(C)(C)N(C)C(=O)[C@H](CC(C)C)NC(=O)[C@H](CCc2ccc(C(F)(F)F)c(Cl)c2)NC(=O)[C@@H](C)N(C)C(=O)[C@H](Cc2ccc(C(F)(F)F)cc2)N(C)C(=O)[C@@H]2CCN2C(=O)CN(C)C1=O` [Compound 1383] (cyclo([Aze][NMePhe(4-CF3)][dNMeA][hPhe(3-Cl-4-CF3)]L[NMeAib]L[NMedβ3hAla][NMeA]I[Sar])), the 50% inhibitory concentration (IC50) turned out to be 130 nM. Then `CC[C@H](C)[C@@H]1NC(=O)[C@H](CC(C)C)N(C)C(=O)C[C@@H](C)N(C)C(=O)[C@H](CC(C)C)NC(=O)C(C)(C)N(C)C(=O)[C@H](CC(C)C)NC(=O)[C@H](CCc2ccc(C(F)(F)F)c(Cl)c2)NC(=O)CN(C)C(=O)[C@H](Cc2ccc(C)cc2)N(C)C(=O)[C@@H]2CCN2C(=O)CN(C)C1=O` [Compound 1386] (cyclo([Aze][NMePhe(4-Me)][Sar][hPhe(3-Cl-4-CF3)]L[NMeAib]L[NMedβ3hAla][NMeL]I[Sar])), with 10 nM; and `CC[C@H](C)[C@@H]1NC(=O)[C@H](C)N(C)C(=O)C[C@@H](C)N(C)C(=O)[C@H](CC(C)C)NC(=O)C(C)(C)N(C)C(=O)[C@H](CC(C)C)NC(=O)[C@H](CCc2ccc(C(F)(F)F)c(Cl)c2)NC(=O)CN(C)C(=O)[C@H](CC2CCCCC2)N(C)C(=O)[C@@H]2CCN2C(=O)CN(C)C1=O` [Compound 1387] (cyclo([Aze][NMeCha][Sar][hPhe(3-Cl-4-CF3)]L[NMeAib]L[NMedβ3hAla][NMeA]I[Sar])), with 14 nM. Then `CC[C@H](C)[C@@H]1NC(=O)[C@H](C)N(C)C(=O)C[C@@H](C)N(C)C(=O)[C@H](CC(C)C)NC(=O)C(C)(C)N(C)C(=O)[C@H](CC(C)C)NC(=O)[C@H](CCc2ccc(C(F)(F)F)c(Cl)c2)NC(=O)CN(C)C(=O)[C@H](CC2CCCCC2)N(C)C(=O)[C@@H]2CCN2C(=O)[C@H](C)N(C)C1=O` [Compound 1391] (cyclo([Aze][NMeCha][Sar][hPhe(3-Cl-4-CF3)]L[NMeAib]L[NMedβ3hAla][NMeA]I[NMeA])), with 65 nM; and `CC[C@H](C)[C@@H]1NC(=O)[C@H](C)N(C)C(=O)C[C@@H](C)N(C)C(=O)[C@H](CC(C)C)NC(=O)C(C)(C)N(C)C(=O)[C@H](CC(C)C)NC(=O)[C@H](CCc2ccc(C(F)(F)F)c(Cl)c2)NC(=O)CN(C)C(=O)[C@H](Cc2ccc(C(F)(F)F)cc2)N(C)C(=O)[C@@H]2CCN2C(=O)CN(C)C1=O` [Compound 1392] (cyclo([Aze][NMePhe(4-CF3)][Sar][hPhe(3-Cl-4-CF3)]L[NMeAib]L[NMedβ3hAla][NMeA]I[Sar])), with 28 nM; and `CC[C@H](C)[C@@H]1NC(=O)[C@H](CC(C)C)N(C)C(=O)C[C@@H](C)N(C)C(=O)[C@H](CC(C)C)NC(=O)C(C)(C)N(C)C(=O)[C@H](CC(C)C)NC(=O)[C@H](CCc2ccc(C(F)(F)F)c(Cl)c2)NC(=O)[C@@H](C)N(C)C(=O)[C@H](Cc2ccc(C)cc2)N(C)C(=O)[C@@H]2CCN2C(=O)CN(C)C1=O` [Compound 1394] (cyclo([Aze][NMePhe(4-Me)][dNMeA][hPhe(3-Cl-4-CF3)]L[NMeAib]L[NMedβ3hAla][NMeL]I[Sar])), with 130 nM. Then `CC[C@H](C)[C@@H]1NC(=O)[C@H](CC(C)C)N(C)C(=O)C[C@@H](C)N(C)C(=O)[C@H](CC(C)C)NC(=O)C(C)(C)N(C)C(=O)[C@H](CC(C)C)NC(=O)[C@H](CCc2ccc(C(F)(F)F)c(Cl)c2)NC(=O)[C@@H](C)N(C)C(=O)[C@H](Cc2ccc(C(F)(F)F)cc2)N(C)C(=O)[C@@H]2CCN2C(=O)CN(C)C1=O` [Compound 1395] (cyclo([Aze][NMePhe(4-CF3)][dNMeA][hPhe(3-Cl-4-CF3)]L[NMeAib]L[NMedβ3hAla][NMeL]I[Sar])), with 270 nM; and `CC[C@H](C)[C@@H]1NC(=O)[C@H](C)N(C)C(=O)C[C@@H](C)N(C)C(=O)[C@H](CC(C)C)NC(=O)C(C)(C)N(C)C(=O)[C@H](CC(C)C)NC(=O)[C@H](CCc2ccc(C(F)(F)F)c(Cl)c2)NC(=O)CN(C)C(=O)[C@H](Cc2ccc(C(F)(F)F)cc2)N(C)C(=O)[C@@H]2CCN2C(=O)[C@H](C)N(C)C1=O` [Compound 1399] (cyclo([Aze][NMePhe(4-CF3)][Sar][hPhe(3-Cl-4-CF3)]L[NMeAib]L[NMedβ3hAla][NMeA]I[NMeA])), with 70 nM; and `CC[C@H](C)[C@@H]1NC(=O)[C@H](CC(C)C)N(C)C(=O)C[C@@H](C)N(C)C(=O)[C@H](CC(C)C)NC(=O)C(C)(C)N(C)C(=O)[C@H](CC(C)C)NC(=O)[C@H](CCc2ccc(C(F)(F)F)c(Cl)c2)NC(=O)[C@@H](C)N(C)C(=O)[C@H](CC2CCCCC2)N(C)C(=O)[C@@H]2CCN2C(=O)CN(C)C1=O` [Compound 1400] (cyclo([Aze][NMeCha][dNMeA][hPhe(3-Cl-4-CF3)]L[NMeAib]L[NMedβ3hAla][NMeL]I[Sar])), with 210 nM. For `CC[C@H](C)[C@@H]1NC(=O)[C@H](CC(C)C)N(C)C(=O)C[C@@H](C)N(C)C(=O)[C@H](CC(C)C)NC(=O)C(C)(C)N(C)C(=O)[C@H](CC(C)C)NC(=O)[C@H](CCc2ccc(C(F)(F)F)c(Cl)c2)NC(=O)CN(C)C(=O)[C@H](Cc2ccc(C(F)(F)F)cc2)N(C)C(=O)[C@@H]2CCN2C(=O)[C@H](C)N(C)C1=O` [Compound 1401] (cyclo([Aze][NMePhe(4-CF3)][Sar][hPhe(3-Cl-4-CF3)]L[NMeAib]L[NMedβ3hAla][NMeL]I[NMeA])), the IC50 turned out to be 120 nM. Then `CC[C@H](C)[C@@H]1NC(=O)[C@H](C)N(C)C(=O)C[C@@H](C)N(C)C(=O)[C@H](CC(C)C)NC(=O)C(C)(C)N(C)C(=O)[C@H](CC(C)C)NC(=O)[C@H](CCc2ccc(C(F)(F)F)c(Cl)c2)NC(=O)CN(C)C(=O)[C@H](Cc2ccc(C)cc2)N(C)C(=O)[C@@H]2CCN2C(=O)[C@H](C)N(C)C1=O` [Compound 1402] (cyclo([Aze][NMePhe(4-Me)][Sar][hPhe(3-Cl-4-CF3)]L[NMeAib]L[NMedβ3hAla][NMeA]I[NMeA])), with 57 nM; and `CC[C@H](C)[C@@H]1NC(=O)[C@H](CC(C)C)N(C)C(=O)C[C@@H](C)N(C)C(=O)[C@H](CC(C)C)NC(=O)C(C)(C)N(C)C(=O)[C@H](CC(C)C)NC(=O)[C@H](CCc2ccc(C(F)(F)F)c(Cl)c2)NC(=O)CN(C)C(=O)[C@H](Cc2ccc(C(F)(F)F)cc2)N(C)C(=O)[C@@H]2CCN2C(=O)CN(C)C1=O` [Compound 1403] (cyclo([Aze][NMePhe(4-CF3)][Sar][hPhe(3-Cl-4-CF3)]L[NMeAib]L[NMedβ3hAla][NMeL]I[Sar])), with 32 nM; and `CCCC[C@@H]1NC(=O)[C@H](Cc2cccc(Br)c2)NC(=O)CN(C)C(=O)[C@H](Cc2ccc(Cl)cc2)N(C)C(=O)CN(C)C(=O)CN(C)C(=O)[C@H]([C@@H](C)CC)NC(=O)[C@H](CC(C)C)N(C)C(=O)C[C@@H](C(=O)N2CCCCC2)N(C)C(=O)[C@H](CC(C)C)NC(=O)C(C)(C)N(C)C1=O` [Compound 1404] ([NMeL]I[Sar][Sar][NMePhe(4-Cl)][Sar][Phe(3-Br)][Nle][NMeAib]L[NMeD]-Piperidide; lactam N-11), with 17 nM.

For `C=C(C)C[C@@H]1NC(=O)[C@H](Cc2cccc(I)c2)NC(=O)CN(C)C(=O)[C@H](CC2CCCC2)N(C)C(=O)[C@@H]2CCN2C(=O)[C@H](C)N(C)C(=O)[C@H]([C@@H](C)CC)NC(=O)[C@H](CC(C)C)N(C)C(=O)C[C@@H](C(=O)N2CCCCC2)N(C)C(=O)[C@H](CC(C)C)NC(=O)C(C)(C)N(C)C1=O` [Compound 1405] ([NMeL]I[NMeA][Aze][NMeAla(cPent)][Sar][Phe(3-I)][Leu(4,5-dehydro)][NMeAib]L[NMeD]-Piperidide; lactam N-11), the concentration for half-maximal inhibition (IC50) was 82 nM.

`CCCC[C@@H]1NC(=O)[C@H](Cc2cccc(Cl)c2)NC(=O)CN(C)C(=O)[C@H](Cc2ccc(Cl)cc2)N(C)C(=O)CN(C)C(=O)CN(C)C(=O)[C@H]([C@@H](C)CC)NC(=O)[C@H](CC(C)C)N(C)C(=O)C[C@@H](C(=O)N2CCCC2)N(C)C(=O)[C@H](CC(C)C)NC(=O)C(C)(C)N(C)C1=O` [Compound 1407] ([NMeL]I[Sar][Sar][NMePhe(4-Cl)][Sar][Phe(3-Cl)][Nle][NMeAib]L[NMeD]-Pyrrolidide; lactam N-11): the IC50 turned out to be 170 nM. Then `CC[C@H](C)[C@@H]1NC(=O)[C@H](CC(C)C)N(C)C(=O)C[C@@H](C)N(C)C(=O)[C@H](CC(C)C)NC(=O)C(C)(C)N(C)C(=O)[C@H](CC=C(C)C)NC(=O)[C@H](Cc2cccc(I)c2)NC(=O)CN(C)C(=O)[C@H](Cc2ccc(Cl)cc2)N(C)C(=O)[C@@H]2CCN2C(=O)CN(C)C1=O` [Compound 1408] (cyclo([Aze][NMePhe(4-Cl)][Sar][Phe(3-I)][X10][NMeAib]L[NMedβ3hAla][NMeL]I[Sar])), with 160 nM.
